Where a name gives a salt, the structure may show the parent alone.
Key:
Assay type in all cases: physicochemical
[1] = Critical micelle concentration in water, Kruss K100 tensiometer
Protocol: Critical micelle concentrations in water were measured using an A Kruss Laboratory K100 tensiometer. CMC values were determined using the K100 instrument's fully automated measurement method, as described further in the K100 instrument's operating manual.

[2] = Wetting time, skein test; details: average of three measurements; for Wetting time (1 g/L): 1 g/L surfactant; for Wetting time (2 g/L): 2 g/L surfactant
Protocol: Wetting time was measured by heating an aqueous mixture of the surfactant in an oven for 15-20 minutes at 50-60° C. and homogenizing regularly. 1+/−0.1 g or 2+/−0.1 g of the surfactant was weighed into a 1 L volumetric flask, and distilled water was added by portions of 200-300 mL and agitating regularly. After the resulting foam disappeared, the volume was adjusted to the 1 liter level. Skein yams were removed from their packaging and hung for a period of time before measurement. The surfactant solution was poured into a graduated cylinder (1 L), and foam was removed with a small nitrogen or air flow. The skein was folded one time. A hook was fastened with its anchor at one end of the folded skein, and at the opposite end, the skein was cut through. The cut skein was then compacted. The skein was held with the anchor and the weight above the 1-liter graduated cylinder containing the surfactant solution. A stopwatch was activated just as the skein was released into the surfactant solution. The stopwatch was stopped once the skein started to sink. The average of three measurements using fresh surfactant solution and a new skein each time is reported. Wetting results are specified in Table 5 below.

[3] = Solubility in water at 25° C., visual observation; details: 2-3 hours magnetic stirring
Protocol: Solubility measurements were conducted in water at 25° C. Solubility was determined through visual observation after 2-3 hours of magnetic stirring of surfactant solutions having variable concentrations.

[4] = Calcium tolerance (hard water tolerance), surfactant remaining in filtrate by HPLC-ELSD; details: 25° C., 450 ppm surfactant, 420 ppm cations (3:1 Ca2+:Mg2+), overnight
Protocol: Calcium tolerance was measured at 25° C. using the following procedure. A surfactant solution containing 450 ppm of alcohol sulfate surfactant and 420 ppm cations (3:1 Ca^2+:Mg^2+) was prepared and allowed to stand overnight. Crystals formed during this time. The supernatant liquid was removed and passed through a 0.22 μm filter to provide a filtrate. The filtrate was then analyzed for surfactant residue. Analysis of the surfactant and salt residue was performed using an Agilent 1100 HPLC combined with SEDEX 75 evaporative light scattering detector (ELSD) using the run conditions specified in Table 4 below. Peak height was utilized to analyze surfactant concentration. Some samples were repeated in triplicate. Calcium tolerance results are specified in Table 5 below.

| CMC [1] | Wetting time (1 g/L) [2] | Wetting time (2 g/L) [2] | Solubility at 25° C. [3] | Structure (SMILES) | Calcium tolerance (ppm surfactant remaining) [4] |
| --- | --- | --- | --- | --- | --- |
| 0.00129 g/g | 6.1 s | 2.3 s |  | CCCC(C)CCCC(C)CCCOS(=O)(=O)O (centres unmarked) [Isotridecyl Sulfate-2, C# = 13, 4,8-dimethylundecan-1-sulfate] |  |
| 0.001 g/g | 6.3 s | 3.1 s | <0.5% Wt. % | CCCCCCCCCCCCCOS(=O)(=O)[O-].[Na+] [Sodium n-Tridecyl Sulfate] | 11.2 ppm |
